Results as given in paper PMC12113356, “Novel Anti-MRSA Peptide from Mangrove-Derived Virgibacillus chiguensis FN33 Supported by Genomics and Molecular Dynamics” (Marine Drugs, 2025).
≈ marks a conversion by molar mass, not a printed value. Read-outs that look alike come from different tables or passages of the source.

Legend:
MRSA strain 2468 [1] = test: Compatibility with surfactants (activity retention by agar well diffusion); type: physicochemical, Staphylococcus aureus; conditions: surfactant 1% w/v alone, no AMP, agar well diffusion, % of untreated FN33 AMP sample, mean ± SD, n = 3
Experimental: The AMP solution was prepared in sterile purified water and adjusted to a final concentration of 32 µg/mL. To determine thermal stability, the AMP was exposed to temperatures of 30, 40, 60, 80, and 100 °C, as well as to autoclaving at 121 °C and 15 psi for 15 and 30 min. The susceptibility of the AMP to enzymatic degradation was examined by treating it with proteinase K, trypsin, and α-chymotrypsin (each at 1 mg/mL, Sigma-Aldrich, Warren, MI, USA), representing different proteolytic mechanisms. The AMP’s compatibility with surfactants was assessed by incubating it with 1% SDS, 1% CTAB, and 1% Triton X-100 (AppliChem GmbH, Darmstadt, Germany). Additionally, the effect of pH variations on AMP integrity was tested by adjusting the solution to pH 1, 4, 8, 10, and 14. The pH was neutralized to the original pH after incubation before conducting antibacterial activity tests. […] Stability data were expressed as residual activity percentages relative to the untreated sample (mean ± SD), and statistical significance was evaluated using two-way ANOVA and Tukey’s post hoc test, with a p-value < 0.05 considered significant.

[2] = DPPH radical-scavenging assay; conditions: 0.1 mM DPPH, 25 °C, 30 min in darkness, absorbance 517 nm; mean ± SD, n = 3
Experimental: A 200 μL sample or ascorbic acid (Gammaco Ltd., Bangkok, Thailand) was added to 2 mL of 0.1 mM DPPH solution (Merck Ltd., Bangkok, Thailand) and incubated at 25 °C in darkness for 30 min. The DPPH color change from purple to pale yellow was observed, and the absorbance at 517 nm was measured using a UV–visible spectrophotometer.

MRSA strains = test: Broth microdilution MIC/MBC (CLSI), for the MRSA strains together; type: cell-based; conditions: Staphylococcus aureus
Experimental: (§1) The broth microdilution method was performed following the guidelines of the Clinical and Laboratory Standards Institute (CLSI). Test strains including S. aureus TISTR 517 and MRSA strains 142, 1096, and 2468 were cultured on MH agar at 37 °C for 18 h. A single colony from each strain was suspended in 0.85% NaCl until it reached a turbidity of 0.1 OD at 625 nm (1 × 10^8 CFU/mL). The bacterial cells were then diluted to 5 × 10^6 CFU/mL using cation-adjusted Mueller–Hinton broth (CAMHB). Ten microliters of the cell suspension were added to each well of a 96-well plate to make the total volume in each well 100 µL. The AMP was added to achieve final concentrations ranging from 0.125 to 64 µg/mL. Vancomycin and cefoxitin were used as positive controls, while antibiotic-free samples were used as negative controls. The plate was incubated at 37 °C for 24 h. Each experiment was performed in triplicate. The MIC was determined as the lowest concentration that inhibited visible bacterial growth. For the MBC, 100 µL from each dilution was spread on MH agar and incubated at 37 °C for 24 h. The MBC was the lowest concentration at which no bacterial colonies appeared on the agar plates.

S. aureus TISTR 517 [3] = test: Broth microdilution MIC/MBC (CLSI); type: cell-based, Staphylococcus aureus
Experimental: as §1

MRSA strain 142 [4] = test: Agar well diffusion method; type: cell-based, Staphylococcus aureus; conditions: 9 mm wells, MH agar, 37 °C 18 h, antibiotics 30 µg, mean ± SD, n = 3
Experimental: (§2) The optical density of the starter cultures was adjusted to 0.1 OD at 625 nm using 0.85% sterile NaCl solution before transferring 1 mL of the culture into 49 mL of fresh broth. The inoculum was then incubated at 30 °C with shaking at 150 rpm for 3 days. The CFS was obtained by centrifugation at 10,000× g at 4 °C for 15 min and filtered through a 0.2 µm sterile cellulose acetate syringe filter (Sigma-Aldrich, Warren, MI, USA). The antibacterial activity of the isolates was tested against S. aureus TISTR 517, E. coli TISTR 887, K. pneumoniae TISTR 1383, and P. aeruginosa TISTR 357, obtained from the Thailand Institute of Scientific and Technological Research (TISTR), Thailand, and three MRSA strains (strains 142, 1096, and 2468), provided by the medical technology laboratory of the School of Allied Health Sciences, Walailak University, Thailand. The pathogenic bacteria were incubated on MH agar at 37 °C for 18 h to obtain fresh cultures. Colonies of the test pathogens were scraped and suspended in 0.85% sterile NaCl solution. The test pathogen suspensions were adjusted to a turbidity equivalent to 0.1 OD at 625 nm before being spread onto MH agar plates. […] Wells with a diameter of 9 mm were made in the agar using a sterile cork borer. The collected CFS from the bacterial culture was transferred into the wells, and the plates were incubated at 37 °C for 18 h. Cefoxitin (30 µg) and vancomycin (30 µg) (Sigma-Aldrich Co., St. Louis, MO, USA) were used as positive controls. The experiment was repeated in triplicate, and the mean ± SD of the inhibition zone diameters was recorded.

MRSA strain 2468 [5] = test: Agar well diffusion method; type: cell-based, Staphylococcus aureus; conditions: 9 mm wells, MH agar, 37 °C 18 h, antibiotics 30 µg, mean ± SD, n = 3
Experimental: as §2

S. aureus TISTR 517 [6] = test: Agar well diffusion method; type: cell-based, Staphylococcus aureus; conditions: 9 mm wells, MH agar, 37 °C 18 h, antibiotics 30 µg, mean ± SD, n = 3
Experimental: as §2

MRSA strain 1096 [7] = test: Agar well diffusion method; type: cell-based, Staphylococcus aureus; conditions: 9 mm wells, MH agar, 37 °C 18 h, antibiotics 30 µg, mean ± SD, n = 3
Experimental: as §2

E. coli TISTR 887 = test: Agar well diffusion method; type: cell-based; conditions: 9 mm wells, MH agar, 37 °C 18 h, antibiotics 30 µg, mean ± SD, n = 3
Experimental: as §2

K. pneumoniae TISTR 1383 = test: Agar well diffusion method; type: cell-based; conditions: 9 mm wells, MH agar, 37 °C 18 h, antibiotics 30 µg, mean ± SD, n = 3
Experimental: as §2

P. aeruginosa TISTR 357 = test: Agar well diffusion method; type: cell-based; conditions: 9 mm wells, MH agar, 37 °C 18 h, antibiotics 30 µg, mean ± SD, n = 3
Experimental: as §2

MRSA strain 142 [8] = test: Broth microdilution MIC/MBC (CLSI); type: cell-based; conditions: Staphylococcus aureus
Experimental: as §1

MRSA strain 2468 [9] = test: Broth microdilution MIC/MBC (CLSI); type: cell-based; conditions: Staphylococcus aureus
Experimental: as §1

MRSA strain 1096 [10] = test: Broth microdilution MIC/MBC (CLSI); type: cell-based; conditions: Staphylococcus aureus
Experimental: as §1

MRSA strain 2468 [11] = test: Scanning electron microscopy of treated cells; type: cell-based, Staphylococcus aureus; conditions: 1× MIC, 16 h / 18 h (figure legend), 30,000× magnification
Source text: (§3) SEM was used to examine morphological alterations in the bacterial cells. […] This appearance reflected their natural cellular structure.
(§4) Figure 5 SEM images captured at 30,000× magnification. […] The non-treatment condition served as a negative control.

S. aureus TISTR 517 [12] = test: Scanning electron microscopy of treated cells; type: cell-based, Staphylococcus aureus; conditions: 1× MIC, 16 h / 18 h (figure legend), 30,000× magnification
Source text: as §3, §4

[13] = 100 µL of each dilution spread on MH agar, 37 °C 24 h, triplicate
[14] = broth microdilution, CAMHB, 37 °C 24 h, triplicate
[15] = 100 µL of each dilution spread on MH agar, 37 °C 24 h, triplicate, read-out: MBC
[16] = broth microdilution, CAMHB, 37 °C 24 h, triplicate, read-out: MIC
[17] = Staphylococcus aureus, TISTR517, 24 h

| Molecule | Antibacterial activity against MRSA Strain 2468 of surfactant alone, on the scale of FN33 AMP activity retention (%) (MRSA strain 2468 [1]; 1 h) | Antibacterial activity against MRSA Strain 2468 of surfactant alone, on the scale of FN33 AMP activity retention (%) (MRSA strain 2468 [1]; 6 h) | Antibacterial activity against MRSA Strain 2468 of surfactant alone, on the scale of FN33 AMP activity retention (%) (MRSA strain 2468 [1]; 12 h) | MBC (S. aureus TISTR 517 [3]; [13]) [µg/mL] | MIC (S. aureus TISTR 517 [3]; [14]) [µg/mL] | Zone of Inhibition (MRSA strain 142 [4]) [mm] | Zone of Inhibition (MRSA strain 2468 [5]) [mm] | Zone of Inhibition (S. aureus TISTR 517 [6]) [mm] | Zone of Inhibition (MRSA strain 1096 [7]) [mm] | Zone of Inhibition (E. coli TISTR 887) [mm] | Zone of Inhibition (K. pneumoniae TISTR 1383) [mm] | Zone of Inhibition (P. aeruginosa TISTR 357) [mm] | also measured |
| --- | --- | --- | --- | --- | --- | --- | --- | --- | --- | --- | --- | --- | --- |
| CCCCCCCCCCCCCCCC[N+](C)(C)C [CTAB, cetyltrimethylammonium bromide, reference compound] | 98.62 ± 0.69 | 98.89 ± 1.10 | 98.42 ± 0.72 |  |  |  |  |  |  |  |  |  |  |
| Triton X-100 [reference compound] | 0.00 ± 0.00 | 0.00 ± 0.00 | 0.00 ± 0.00 |  |  |  |  |  |  |  |  |  |  |
| O=C1O[C@H]([C@@H](O)CO)C(O)=C1O [Ascorbic acid, ascorbic acid, reference compound] |  |  |  |  |  |  |  |  |  |  |  |  | IC50 (DPPH radical scavenging) [2]: 6.78 ± 1.58 µg/mL (≈ 38.5 µM) |
| CCCCCCCCCCCCOS(=O)(=O)[O-].[Na+] [SDS, sodium dodecyl sulfate, reference compound] | 110.10 ± 0.84 | 109.30 ± 0.56 | 108.93 ± 0.57 |  |  |  |  |  |  |  |  |  |  |
| CO[C@@]1(NC(=O)Cc2cccs2)C(=O)N2C(C(=O)O)=C(COC(N)=O)CS[C@@H]21 [Cefoxitin] |  |  |  | 2 (≈ 4.68 µM) | 2 (≈ 4.68 µM) | 0.00 ± 0.00 | 0.00 ± 0.00 | 35.87 ± 0.46 | 0.00 ± 0.00 | 35.12 ± 1.04 | 19.67 ± 0.88 | 0.00 ± 0.00 | MBC (MRSA strains; text statement for the MRSA strains (142, 1096, 2468) together, read-out: MBC): > 64 µg/mL; MIC (MRSA strains; text statement for the MRSA strains (142, 1096, 2468) together, read-out: MIC): > 64 µg/mL; MBC (S. aureus TISTR 517 [3]; Staphylococcus aureus, TISTR517, 100 µL of each dilution spread on MH agar, 37 °C 24 h, triplicate, read-out: MBC): 2 µg/mL (≈ 4.68 µM); MIC (S. aureus TISTR 517 [3]; Staphylococcus aureus, TISTR517, broth microdilution, CAMHB, 37 °C 24 h, triplicate, read-out: MIC): 2 µg/mL (≈ 4.68 µM); MBC (MRSA strain 142 [8]; [15]): > 64 µg/mL; MIC (MRSA strain 142 [8]; [16]): > 64 µg/mL; MBC (MRSA strain 2468 [9]; [15]): > 64 µg/mL; MIC (MRSA strain 2468 [9]; [16]): > 64 µg/mL; MBC (MRSA strain 1096 [10]; [15]): > 64 µg/mL; MIC (MRSA strain 1096 [10]; [16]): > 64 µg/mL |
| CN[C@H](CC(C)C)C(=O)N[C@H]1C(=O)N[C@@H](CC(N)=O)C(=O)N[C@H]2C(=O)N[C@H]3C(=O)N[C@H](C(=O)N[C@H](C(=O)O)c4cc(O)cc(O)c4-c4cc3ccc4O)[C@H](O)c3ccc(c(Cl)c3)Oc3cc2cc(c3O[C@@H]2O[C@H](CO)[C@@H](O)[C@H](O)[C@H]2O[C@H]2C[C@](C)(N)[C@H](O)[C@H](C)O2)Oc2ccc(cc2Cl)[C@H]1O [Vancomycin] |  |  |  | 2 (≈ 1.38 µM) | 2 (≈ 1.38 µM) | 24.13 ± 1.27 | 24.64 ± 1.02 | 23.37 ± 1.27 | 24.38 ± 0.51 | 0.00 ± 0.00 | 0.00 ± 0.00 | 0.00 ± 0.00 | MBC (MRSA strains; MRSA): 2 µg/mL (≈ 1.38 µM); MIC (MRSA strains; MRSA): 2 µg/mL (≈ 1.38 µM); MBC (S. aureus TISTR 517 [3]; [17]): 2 µg/mL (≈ 1.38 µM); MIC (S. aureus TISTR 517 [3]; [17]): 2 µg/mL (≈ 1.38 µM); MBC (MRSA strain 142 [8]; 24 h): 2 µg/mL (≈ 1.38 µM); MIC (MRSA strain 142 [8]; 24 h): 2 µg/mL (≈ 1.38 µM); MBC (MRSA strain 2468 [9]; 24 h): 2 µg/mL (≈ 1.38 µM); MIC (MRSA strain 2468 [9]; 24 h): 2 µg/mL (≈ 1.38 µM); MBC (MRSA strain 1096 [10]; 24 h): 2 µg/mL (≈ 1.38 µM); MIC (MRSA strain 1096 [10]; 24 h): 2 µg/mL (≈ 1.38 µM); morphological changes under SEM (MRSA strain 2468 [11]): complete cell lysis; morphological changes under SEM (S. aureus TISTR 517 [12]): complete cell lysis |
